Data from ChEMBL document CHEMBL3865818, “4,5-Diaryl-3H-1,2-dithiole-3-thiones and related compounds as combretastatin A-4/oltipraz hybrids: Synthesis, molecular modelling and evaluation as antiproliferative agents and inhibitors of tubulin” (Eur J Med Chem, 2016).
Activity calls are given as the source filed them. The calls are words filed in the database; no cut-off is given here.

Assays:
[1] = Antiproliferative activity against human HT1080 cells measured after 72 hrs by MTT assay; type: functional, cell-based; conditions: HT-1080, 72 h
[2] = Inhibition of porcine brain tubulin polymerization measured after 60 mins by fluorescence analysis; set-up: species or system Sus scrofa
[3] = Cell cycle arrest in human KB cells assessed as accumulation at S-phase at 0.05 uM measured after 12 hrs by propidium iodide staining-based flow cytometry (reference value: 15.5%); type: functional
[4] = Cell cycle arrest in human KB cells assessed as accumulation at G2/M-phase at 0.05 uM measured after 12 hrs by propidium iodide staining-based flow cytometry (reference value: 30.19%); type: functional
[5] = Cell cycle arrest in human KB cells assessed as accumulation at S-phase at 0.05 uM measured after 24 hrs by propidium iodide staining-based flow cytometry (reference value: 16.96%); type: functional
[6] = Cell cycle arrest in human KB cells assessed as accumulation at G0/G1-phase at 0.05 uM measured after 36 hrs by propidium iodide staining-based flow cytometry (reference value: 51.51%); type: functional
[7] = Cell cycle arrest in human KB cells assessed as accumulation at SubG1-phase at 0.05 uM measured after 48 hrs by propidium iodide staining-based flow cytometry (reference value: 0.61%); type: functional
[8] = Cell cycle arrest in human KB cells assessed as accumulation at G2/M-phase at 0.05 uM measured after 48 hrs by propidium iodide staining-based flow cytometry (reference value: 23.36%); type: functional
[9] = Cell cycle arrest in human KB cells assessed as accumulation at SubG1-phase at 0.05 uM measured after 60 hrs by propidium iodide staining-based flow cytometry (reference value: 1.24%); type: functional
[10] = Cell cycle arrest in human KB cells assessed as accumulation at G2/M-phase at 0.1 uM measured after 24 hrs by propidium iodide staining-based flow cytometry (reference value: 28.84%); type: functional
[11] = Cell cycle arrest in human KB cells assessed as accumulation at SubG1-phase at 0.1 uM measured after 36 hrs by propidium iodide staining-based flow cytometry (reference value: 0.63%); type: functional
[12] = Cell cycle arrest in human KB cells assessed as accumulation at G0/G1-phase at 0.1 uM measured after 36 hrs by propidium iodide staining-based flow cytometry (reference value: 51.51%); type: functional
[13] = Cell cycle arrest in human KB cells assessed as accumulation at SubG1-phase at 0.1 uM measured after 48 hrs by propidium iodide staining-based flow cytometry (reference value: 0.61%); type: functional
[14] = Cell cycle arrest in human KB cells assessed as accumulation at G2/M-phase at 0.1 uM measured after 48 hrs by propidium iodide staining-based flow cytometry (reference value: 23.36%); type: functional
[15] = Cell cycle arrest in human KB cells assessed as accumulation at SubG1-phase at 0.2 uM measured after 12 hrs by propidium iodide staining-based flow cytometry (reference value: 1.23%); type: functional
[16] = Cell cycle arrest in human KB cells assessed as accumulation at G0/G1-phase at 0.2 uM measured after 12 hrs by propidium iodide staining-based flow cytometry (reference value: 48.26%); type: functional
[17] = Cell cycle arrest in human KB cells assessed as accumulation at SubG1-phase at 0.2 uM measured after 24 hrs by propidium iodide staining-based flow cytometry (reference value: 0.76%); type: functional
[18] = Cell cycle arrest in human KB cells assessed as accumulation at G0/G1-phase at 0.2 uM measured after 24 hrs by propidium iodide staining-based flow cytometry (reference value: 48.52%); type: functional
[19] = Cell cycle arrest in human KB cells assessed as accumulation at G0/G1-phase at 0.2 uM measured after 36 hrs by propidium iodide staining-based flow cytometry (reference value: 51.51%); type: functional
[20] = Cell cycle arrest in human KB cells assessed as accumulation at G2/M-phase at 0.2 uM measured after 36 hrs by propidium iodide staining-based flow cytometry (reference value: 27.34%); type: functional
[21] = Cell cycle arrest in human KB cells assessed as accumulation at S-phase at 0.2 uM measured after 48 hrs by propidium iodide staining-based flow cytometry (reference value: 13.32%); type: functional
[22] = Cell cycle arrest in human KB cells assessed as accumulation at G2/M-phase at 0.2 uM measured after 48 hrs by propidium iodide staining-based flow cytometry (reference value: 23.36%); type: functional
[23] = Cell cycle arrest in human KB cells assessed as accumulation at SubG1-phase at 0.2 uM measured after 60 hrs by propidium iodide staining-based flow cytometry (reference value: 1.24%); type: functional
[24] = Cell cycle arrest in human KB cells assessed as accumulation at S-phase at 0.2 uM measured after 60 hrs by propidium iodide staining-based flow cytometry (reference value: 12.66%); type: functional
[25] = Cell cycle arrest in human KB cells assessed as accumulation at G2/M-phase at 0.2 uM measured after 60 hrs by propidium iodide staining-based flow cytometry (reference value: 18.9%); type: functional
[26] = Cell cycle arrest in human KB cells assessed as accumulation at SubG1-phase measured after 12 hrs by propidium iodide staining-based flow cytometry (reference value: 1.23%); type: functional
[27] = Cell cycle arrest in human KB cells assessed as accumulation at G2/M-phase measured after 12 hrs by propidium iodide staining-based flow cytometry (reference value: 30.19%); type: functional
[28] = Cell cycle arrest in human KB cells assessed as accumulation at SubG1-phase measured after 24 hrs by propidium iodide staining-based flow cytometry (reference value: 0.76%); type: functional
[29] = Cell cycle arrest in human KB cells assessed as accumulation at G0/G1-phase measured after 36 hrs by propidium iodide staining-based flow cytometry (reference value: 51.51%); type: functional
[30] = Cell cycle arrest in human KB cells assessed as accumulation at G0/G1-phase measured after 48 hrs by propidium iodide staining-based flow cytometry (reference value: 58.26%); type: functional
[31] = Cell cycle arrest in human KB cells assessed as accumulation at S-phase measured after 48 hrs by propidium iodide staining-based flow cytometry (reference value: 13.32%); type: functional
[32] = Cell cycle arrest in human KB cells assessed as accumulation at G2/M-phase measured after 48 hrs by propidium iodide staining-based flow cytometry (reference value: 23.36%); type: functional
[33] = Cell cycle arrest in human KB cells assessed as accumulation at S-phase measured after 60 hrs by propidium iodide staining-based flow cytometry (reference value: 12.66%); type: functional
[34] = Cell cycle arrest in human KB cells assessed as accumulation at G2/M-phase measured after 60 hrs by propidium iodide staining-based flow cytometry (reference value: 18.9%); type: functional
[35] = Cell cycle arrest in human KB cells assessed as increase in subG1-peak at 0.2 uM by propidium iodide staining-based flow cytometry; type: functional; conditions: TDE = time-dependent effect
[36] = tested on: KB; experiment: Inhibition of alpha-tubulin in human KB cells assessed as disruption of microtubule formation at 0.2 uM by DAPI staining-based immunofluorescence assay; type: cell-based
[37] = tested on: KB; experiment: Inhibition of alpha-tubulin in human KB cells assessed as induction of mitotic catastrophe by measuring multiple micronuclei formation at 0.2 uM by DAPI staining-based immunofluorescence assay; type: cell-based

IC50 [2]: 4.44 µM
Structure (SMILES): COc1ccc(-c2ssc(=O)c2-c2cc(OC)c(OC)c(OC)c2)cc1N
IC50 [1]: 0.147 µM
Activity [3]: 16.4%
Activity [4]: 30.5%
Activity [5]: 15.5%
Activity [6]: 50.3%
Activity [7]: 15.8%
Activity [8]: 18.5%
Activity [9]: 34.4%
Activity [10]: 41.8%
Activity [11]: 24.3%
Activity [12]: 25.5%
Activity [13]: 33.6%
Activity [14]: 22.6%
Activity [15]: 2.22%
Activity [16]: 1.63%
Activity [17]: 11.1%
Activity [18]: 6.24%
Activity [19]: 7.48%
Activity [20]: 34.7%
Activity [21]: 13.1%
Activity [22]: 19.4%
Activity [23]: 55.3%
Activity [24]: 6.33%
Activity [25]: 19.9%
Activity [26]: 1.85%
Activity [27]: 64.4%
Activity [28]: 12.3%
Activity [29]: 14.4%
Activity [30]: 11.3%
Activity [31]: 12.6%
Activity [32]: 15.5%
Activity [33]: 6.78%
Activity [34]: 15.6%
Activity [35]: Tde
Activity [36]: Active
Activity [37]: Active
